Data published in article PMC5250654 (Clinical Drug Investigation, 2016).
Entries after “also recorded” stand apart in the source; their conditions may differ. Where two headings read alike, the source gives them in different places.

Legend:
[1] = test system: B cell malignancies; conditions: 200 or 250 mg twice daily, cited from earlier work
[2] = Safety and tolerability, fed studies; format: in vivo, human; conditions: n = 40
[3] = Aqueous solubility of mono-mesylate salt; format: physicochemical
[4] = clinical; conditions: human, in vivo, po
[5] = for C trough: Day 7 (steady state), mean (%CV)
[6] = Safety and tolerability, FIH study; format: in vivo, human
[7] = fed vs fasted, dose-dependent
[8] = test system: relapsed or refractory CLL; conditions: 800 mg twice-daily oral, relapsed or refractory CLL (n = 41), cited from earlier work
[9] = clinical; conditions: human, in vivo; for Tmax: t max; for Tmax / half-life: fasted; for half-life: t ½
[10] = biological target: uridine 5′-diphospho-glucuronosyltransferase (UGT) 1A1; conditions: read-out: UGT1A1 inhibition IC50; in vitro; cited from earlier work
[11] = test system: anti-immunoglobulin E-stimulated CD63 expression on basophils; assay: CD63 assay: ex vivo anti-IgE-stimulated CD63 expression on whole-blood basophils; format: cell-based, human
[12] = FIH study (fasted), multiple dose, n = 56
[13] = FIH study (fasted), single dose, n = 40
[14] = po, 200 mg, Day 7 (steady state), 200 mg twice daily oral, median (interquartile range)
[15] = po, 600 mg, Day 7 (steady state), 600 mg twice daily oral, median (interquartile range)
[16] = po, 1200 mg, Day 7 (steady state), 1200 mg twice daily oral, median (interquartile range)

COc1cc(Nc2ncc(F)c(Nc3ccc4c(n3)N(COP(=O)(O)O)C(=O)C(C)(C)O4)n2)cc(OC)c1OC [fostamatinib]
overall response rate (ORR) ([1]; CLL/small lymphocyte leukemia): 55%
overall response rate (ORR) ([1]; DLBCL): 22%
overall response rate (ORR) ([1]; FL): 10%
overall response rate (ORR) ([1]; MCL): 11%

c1cn2cc(-c3ccc4cn[nH]c4c3)nc(Nc3ccc(N4CCOCC4)cc3)c2n1 [entospletinib, Entospletinib]
Treatment-related AE: Headache [2]: 10 (25.0) n (%)
Treatment-related AE: Oropharyngeal pain [2]: 5 (12.5) n (%)
Treatment-related AE: Urinary tract infection [2]: 1 (2.5) n (%)
solubility ([3]; aqueous buffer, pH 2): 3000 µg/mL
solubility ([3]; aqueous medium): < 1 µg/mL
half-life [4]: ~9 h
AUC(0-inf) ([4]; 25 mg): 231 ng·h/mL
Cmax ([4]; 25 mg): 42.3 ng/mL
Tmax ([4]; 25 mg): 2 h
half-life ([4]; 25 mg): 6.77 h
AUC(0-inf) ([4]; 75 mg): 413 ng·h/mL
Cmax ([4]; 75 mg): 67.8 ng/mL
Tmax ([4]; 75 mg): 2.75 h
half-life ([4]; 75 mg): 5.31 h
AUC(0-inf) ([4]; 200 mg): 4250 ng·h/mL
Cmax ([4]; 200 mg): 534 ng/mL
Tmax ([4]; 200 mg): 2 h
half-life ([4]; 200 mg): 9.51 h
Cmax ([4]; 600 mg): 779 ng/mL
Tmax ([4]; 600 mg): 2 h
half-life ([4]; 600 mg): 7.72 h
AUC(0-inf) ([4]; 1200 mg): 9740 ng·h/mL
Cmax ([4]; 1200 mg): 1060 ng/mL
Tmax ([4]; 1200 mg): 3.25 h
half-life ([4]; 1200 mg): 9.59 h
increase in exposure (C max and AUC) on day 7 compared with day 1 ([5]; 7 days of twice-daily dosing, fasted): 2- to 4 fold
C trough ([5]; 25 mg twice daily oral, fasted): 11.9 (64.5) ng/mL
C trough ([5]; 75 mg twice daily oral, fasted): 79.2 (64.0) ng/mL
C trough ([5]; 200 mg twice daily oral, fasted): 380 (63.3) ng/mL
C trough ([5]; 600 mg twice daily oral, fasted): 1242 (65.6) ng/mL
C trough ([5]; 900 mg twice daily oral, fasted): 1473 (67.2) ng/mL
C trough ([5]; 1200 mg twice daily oral, fasted): 1471 (79.6) ng/mL
steady-state C trough levels ([5]; doses of 600 mg twice daily or higher): > 1200 ng/mL
terminal t ½ ([5]; single and multiple oral administration, fasted): 9 h
severity of adverse events ([6]; FIH and fed studies): mild to moderate; also recorded: mild or moderate
discontinuations due to treatment-related AEs ([6]; FIH study): no AE-driven study drug discontinuations
Laboratory abnormality Grade ≥3: ALT [6, 12]: 1 (1.8) n (%)
Laboratory abnormality Grade ≥3: AST [6, 12]: 1 (1.8) n (%)
Laboratory abnormality Grade ≥3: Total bilirubin [6, 12]: 1 (1.8) n (%)
Treatment-related AE: Headache [6, 12]: 18 (32.1) n (%)
Treatment-related AE: Oropharyngeal pain [6, 12]: 6 (10.7) n (%)
Treatment-related AE: Rhinorrhea [6, 12]: 7 (12.5) n (%)
Laboratory abnormality Grade ≥3: Creatinine kinase [6, 13]: 1 (2.5) n (%)
Treatment-related AE: Headache [6, 13]: 5 (12.5) n (%)
Treatment-related AE: Nausea [6, 13]: 6 (10.7) n (%)
tolerability ([6]; single or multiple oral doses, healthy adults): generally well-tolerated; also recorded: When administered in single or multiple oral doses in healthy adults, entospletinib monotherapy is generally well-tolerated
reduction in AUC under fed conditions [7]: 20–80%
reduction in C max under fed conditions [7]: 20–70%
progression-free survival (PFS) rate ([8]; at 24 weeks): 70.1%
median PFS [8]: 13.8 months
Tmax [9, 14]: 2.27 h
half-life [9, 14]: 10 h
Tmax [9, 15]: 2.25 h
half-life [9, 15]: 15.4 h
AUC(0-t) ([9]; po, 900 mg): 5860 ng·h/mL
Tmax [9, 16]: 2.75 h
half-life [9, 16]: 13.9 h
half-life ([9]; doses ≤200 mg twice daily): ~9 h
IC50 [10]: ~2500 nM
inhibition of CD63 expression maintained at C trough ([11]; doses ≥600 mg twice daily, 12 h post-dose): ≥ 63%
maximal mean inhibition of CD63 expression ([11]; doses ≥600 mg twice daily, peak at 2–4 h post-dose): ≥ 86%
EC50 for inhibition of CD63 ([11]; plasma concentration–response, percentage of baseline): 0.429 µg/mL
